Results published in ChEMBL document CHEMBL1133935, “A novel phosphotyrosine mimetic 4'-carboxymethyloxy-3'-phosphonophenylalanine (Cpp): exploitation in the design of nonpeptide inhibitors of pp60(Src) SH2 domain” (Bioorg Med Chem Lett, 2001).

Key:
[1] = target: Tyrosine-protein kinase Yes (Homo sapiens, UniProt P07947); assay: Inhibition of binding to Yes SH2 domain
[2] = target: T1, Tyrosine-protein kinase ZAP-70 (Homo sapiens, UniProt P43403); assay: Inhibition of binding to Zap70 protein kinase
T1 sequence (P43403 whole entry): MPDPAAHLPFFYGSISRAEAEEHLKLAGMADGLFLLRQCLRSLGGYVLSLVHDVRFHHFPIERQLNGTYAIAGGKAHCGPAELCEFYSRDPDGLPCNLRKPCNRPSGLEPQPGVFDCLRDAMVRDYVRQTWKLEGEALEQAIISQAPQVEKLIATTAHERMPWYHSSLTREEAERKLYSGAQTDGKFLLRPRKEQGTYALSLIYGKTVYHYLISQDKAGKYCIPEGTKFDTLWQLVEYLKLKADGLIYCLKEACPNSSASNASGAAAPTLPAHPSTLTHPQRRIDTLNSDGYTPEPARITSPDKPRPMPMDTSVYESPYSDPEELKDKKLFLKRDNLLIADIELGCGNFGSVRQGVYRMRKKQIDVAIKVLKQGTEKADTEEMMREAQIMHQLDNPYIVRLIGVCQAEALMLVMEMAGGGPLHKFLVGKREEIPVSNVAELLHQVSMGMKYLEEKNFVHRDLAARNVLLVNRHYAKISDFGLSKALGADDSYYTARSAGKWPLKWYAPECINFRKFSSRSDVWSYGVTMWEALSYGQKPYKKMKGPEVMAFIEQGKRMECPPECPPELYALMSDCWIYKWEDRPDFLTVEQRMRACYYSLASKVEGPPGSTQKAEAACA

[3] = target: Proto-oncogene tyrosine-protein kinase Src (Homo sapiens, UniProt P12931); assay: Inhibition of binding to Src SH2 domain
Chain of Proto-oncogene tyrosine-protein kinase Src (P12931 2-536 limits assumed): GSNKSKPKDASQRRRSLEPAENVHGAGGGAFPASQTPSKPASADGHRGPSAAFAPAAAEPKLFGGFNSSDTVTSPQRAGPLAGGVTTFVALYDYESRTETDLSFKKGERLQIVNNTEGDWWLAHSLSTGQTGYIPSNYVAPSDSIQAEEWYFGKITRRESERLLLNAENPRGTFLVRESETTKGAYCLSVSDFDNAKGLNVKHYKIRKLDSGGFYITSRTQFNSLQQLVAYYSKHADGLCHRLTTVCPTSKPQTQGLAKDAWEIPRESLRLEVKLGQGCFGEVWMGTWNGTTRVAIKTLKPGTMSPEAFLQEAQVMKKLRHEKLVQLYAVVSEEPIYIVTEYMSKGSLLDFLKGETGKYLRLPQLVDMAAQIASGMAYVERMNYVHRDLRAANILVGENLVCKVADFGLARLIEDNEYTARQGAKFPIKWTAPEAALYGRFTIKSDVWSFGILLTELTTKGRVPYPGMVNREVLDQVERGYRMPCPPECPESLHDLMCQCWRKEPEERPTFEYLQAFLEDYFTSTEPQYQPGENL

Oryctolagus cuniculus = organism: Oryctolagus cuniculus; assay: Inhibition of rabbit osteoclast-mediated resorption of dentine at 100 uM; 0-35% inhibition; type: functional

Chain of Tyrosine-protein kinase Yes (P07947 whole entry, the tested form may be a part): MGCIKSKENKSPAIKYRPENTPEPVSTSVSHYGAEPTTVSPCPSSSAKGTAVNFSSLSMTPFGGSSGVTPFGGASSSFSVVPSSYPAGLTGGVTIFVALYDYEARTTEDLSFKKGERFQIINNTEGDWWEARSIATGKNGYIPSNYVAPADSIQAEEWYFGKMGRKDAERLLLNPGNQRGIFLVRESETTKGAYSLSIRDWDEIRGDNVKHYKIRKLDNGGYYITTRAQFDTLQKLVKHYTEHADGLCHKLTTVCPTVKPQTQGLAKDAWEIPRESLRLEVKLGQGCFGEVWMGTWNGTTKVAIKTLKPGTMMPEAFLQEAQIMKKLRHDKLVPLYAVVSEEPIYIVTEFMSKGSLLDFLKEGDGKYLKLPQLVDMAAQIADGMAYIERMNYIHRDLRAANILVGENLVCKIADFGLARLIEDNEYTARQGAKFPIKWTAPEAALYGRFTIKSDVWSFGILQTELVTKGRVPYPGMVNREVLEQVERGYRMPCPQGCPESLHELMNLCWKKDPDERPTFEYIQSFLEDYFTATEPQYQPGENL

Row | SMILES | IC50 [1] | IC50 [2] | IC50 [3] | Inhibition (Oryctolagus cuniculus)
1 | CCOP(=O)(O)c1cc(CC(NC(C)=O)C(=O)N[C@@H](C)c2ccc(OCC3CCCCC3)c(C(N)=O)c2)ccc1OCC(=O)O (some centres undefined) | 156 µM | > 500 µM | 7.3 µM | –
2 | CC(=O)NC(Cc1ccc(OCC(=O)O)cc1)C(=O)N[C@@H](C)c1ccc(OCC2CCCCC2)c(C(N)=O)c1 (some centres undefined) | > 500 µM | – | 370 µM | –
3 | CC(=O)NC(Cc1ccc(OCC(=O)O)c(P(=O)(O)O)c1)C(=O)NCc1ccc(OCC2CCCCC2)c(C(N)=O)c1 (centres undefined) | > 500 µM | > 500 µM | 378 µM | –
4 | CC(=O)NC(Cc1ccc(OCC(=O)O)c(P(=O)(O)O)c1)C(=O)N[C@@H](C)c1ccc(OCC2CCCCC2)c(C(N)=O)c1 (some centres undefined) | 110 µM | > 500 µM | – | 0%
5 | CC(=O)NC(Cc1ccc(OCC(=O)O)c(P(=O)(O)O)c1)C(=O)Nc1ccc(OCC2CCCCC2)c(C(N)=O)c1 (centres undefined) | > 500 µM | > 500 µM | > 500 µM | –
6 | CC(=O)NC(Cc1ccc(OP(=O)(O)O)cc1)C(=O)N[C@@H](C)c1ccc(OCC2CCCCC2)c(C(N)=O)c1 (some centres undefined) | – | 441 µM | – | –

More lines, main results first:

Row | IC50 [1] | IC50 [2] | IC50 [3] | SMILES | Inhibition (Oryctolagus cuniculus)
7 | > 500 µM | > 500 µM | > 500 µM | CC(C)(NC(=O)CCc1ccc(OCn2cnnn2)c(P(=O)(O)O)c1)c1ccc(OCC2CCCCC2)c(C(N)=O)c1 | –
8 | 303 µM | > 500 µM | 35.4 µM | CC(C)(NC(=O)CCc1ccc(OCC(=O)O)c(P(=O)(O)O)c1)c1ccc(OCC2CCCCC2)c(C(N)=O)c1 | –
9 | – | > 500 µM | 3.2 µM | CC(=O)NC(Cc1ccc(OCC(=O)O)c(P(=O)(O)O)c1)C(=O)NC(C)(C)c1ccc(OCC2CCCCC2)c(C(N)=O)c1 (centres undefined) | –
10 | > 500 µM | > 500 µM | > 500 µM | CC(C)(NC(=O)CCc1ccc(OS(=O)(=O)C(F)(F)F)c(P(=O)(O)O)c1)c1ccc(OCC2CCCCC2)c(C(N)=O)c1 | –
11 | > 500 µM | > 500 µM | > 500 µM | CC(C)(NC(=O)CCc1ccc(O)c(P(=O)(O)O)c1)c1ccc(OCC2CCCCC2)c(C(N)=O)c1 | –
